Results published in patent publication US20250352517A1, “THERAPEUTIC OR PROPHYLACTIC AGENT FOR COVID19 WHICH COMPRISES SELENONEINE” (National University Corporation Chiba University, priority 2021, published 2025).

Legend:
Format in all cases: biochemical
papain = molecular target: T1, papain (Carica papaya, UniProt P00784); assay: Inhibitory activity against papain activity (Bz-Arg-MCA fluorescent substrate); settings: 10 μg/ml papain, 15 min preincubation, 37° C., pH 7.4, 10 μM Bz-Arg-MCA; from FIG. 5
T1 construct: purchased Sigma-Aldrich Japan
Description: Thereafter, 10 μM Bz-Arg-MCA was added to the reaction solution, and changes in the fluorescence intensity caused by cleavage of Bz-Arg-MCA were observed over time using a fluorometer.
Thereafter, 10 μM Bz-Arg-MCA was added to the reaction solution, and changes in the fluorescence intensity caused by cleavage of Bz-Arg-MCA were measured using a fluorometer, to investigate the inhibitory activity.

M^pro of SARS-COV2 [1] = molecular target: T2, M^pro of SARS-COV2 (Severe acute respiratory syndrome coronavirus 2, UniProt P0DTD1); assay: Inhibitory activity against M^pro of SARS-COV2 (Ac-Abu-Tle-Leu-Gln-MCA fluorescent substrate), Example 4; settings: 2 μg/ml M^pro, 5 min preincubation
Description: Thereafter, 10 μM Ac-Abu-Tle-Leu-Gln-MCA was added to the reaction solution, and changes in the fluorescence intensity caused by cleavage of Ac-Abu-Tle-Leu-Gln-MCA were measured using a fluorometer, to investigate the inhibitory activity (FIG. 8). In order to provide a control, changes in the fluorescence intensity were measured under the same conditions except that no inhibitory compound was added.
Ac-Abu-Tle-Leu-Gln-MCA is degraded by M^pro, to produce a fluorescent substance as follows. The production of the fluorescent substance is suppressed by the action of an M^pro-inhibiting compound.
Thereafter, 10 μM Ac-Abu-Tle-Leu-Gln-MCA was added to the reaction solution, and changes in the fluorescence intensity caused by cleavage of Ac-Abu-Tle-Leu-Gln-MCA were measured using a fluorometer to measure the fluorescence intensity, to determine an inhibition curve (FIG. 8).

M^pro of SARS-COV2 [2] = molecular target: T2, M^pro of SARS-COV2; assay: Inhibitory activity against M^pro of SARS-COV2 at 1 μM test compound, Example 5; settings: 2 μg/ml M^pro, measured 1 minute after addition, FIG. 10
Description: The M^pro was introduced into a plasmid having GST and a histidine tag (FIG. 6), and the resulting plasmid was used for transformation of the E. coli BL21 (DE3) strain. The E. coli BL21 (DE3) strain was cultured at 37° C. to allow expression of M^pro protein. The cell bodies were recovered, and M^pro protein was purified using a binding agent for the histidine tag. The GST and the histidine tag were removed by autodigestion of M^pro and human rhinovirus 3C protease (HRV), and undigested M^pro and HRV were removed using a binding agent for the histidine tag, to obtain a purified sample of M^pro protein. […]
After dissolving 2 μg/ml M^pro and 1 μM test compound in 50 mM Tris-HCl (pH 7.4) kept at 37° C., preincubation was carried out for 5 minutes. Thereafter, 10 μM Ac-Abu-Tle-Leu-Gln-MCA was added to the reaction solution, and the fluorescence intensity resulting from cleavage of Ac-Abu-Tle-Leu-Gln-MCA was measured using a fluorometer, to measure the inhibitory activity (FIG. 10). […] When the fluorescence intensity observed in the case without addition of a test compound was taken as 100, the fluorescence intensity measured 1 minute after the addition of the test compound was about 20% in the case of selenoneine.

T1 sequence (P00784 134-345): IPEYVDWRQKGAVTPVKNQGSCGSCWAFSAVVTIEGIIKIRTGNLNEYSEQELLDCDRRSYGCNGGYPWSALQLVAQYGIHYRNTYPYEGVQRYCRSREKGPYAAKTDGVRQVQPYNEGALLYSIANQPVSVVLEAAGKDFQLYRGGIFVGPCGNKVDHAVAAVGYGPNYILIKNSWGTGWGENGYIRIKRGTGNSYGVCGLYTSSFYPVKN

C[N+](C)(C)C(Cc1cnc([SeH])[nH]1)C(=O)O [Selenoneine, 2-selenyl-Nα,Nα,Nα-trimethyl-L-histidine] was tested, and the IC50 (papain) was 250 nM, the IC50 (M^pro of SARS-COV2 [1]; 37° C., pH 7.4, 10 μM Ac-Abu-Tle-Leu-Gln-MCA, read-out: IC50 value calculated from the regression curve) was 540 nM and the “changes in the fluorescence intensity compared with control without inhibitory compound” value (M^pro of SARS-COV2 [1]; 5 μM compound, FIG. 8) was “lower than that in the case where no inhibitory compound was added”. For the same compound, the “fluorescence intensity (case without test compound taken as 100)” value (M^pro of SARS-COV2 [2]) was “about 20%”.

O=c1c2ccccc2[se]n1-c1ccccc1 [Ebselen, ebselen, reference compound] gave an IC50 (papain) of 5000 nM.
